Patent publication US20230165870A1, “6,8-dioxa-3-azabicyclo[3.2.l]Octane Carboxylic Acids And Their Derivatives For Use In The Treatment Of Inflammations” (MINERVA S.R.L., priority 2020, published 2023)
Structures can show the parent of a compound that is named as a salt.

Columns and labels:
Type in all cases: cell-based
[1] = tested on: human monocytes stimulated with LPS; assay: Production of IL-1β, TNF-α and IL-6 in human monocytes stimulated with LPS (Luminex multiplex assay); conditions: 50 ng/ml LPS, MT8 10 or 30 µM, 18 hours
Experimental: (§1) LipoPoliSaccharide (LPS) is an endotoxin that induces a strong immune reaction. In the presence of LPS, immune system cells such as monocytes and dendritic cells react by producing high amounts of inflammatory cytokines such as IL-1β, TNFα and IL-6. To test the ability of MT8 to modulate the production of these cytokines, human monocytes (isolated from buffy coat using anti-CD14 antibody) and human monocytes-derived dendritic cells (MDCs) were cultured at 10^6 cells/ml in complete medium and stimulated with 50 ng/ml of LPS, in the presence or absence of MT8 at a concentration of 10 or 30 µM. After 18 hours of incubation, the supernatants of both cell types were collected and the production of IL-1β, TNF-α, and IL-6 was evaluated by Luminex multiplex assay technology. […] In particular, MT8 was able to decrease the amount of IL-1β in a dose-dependent manner in both monocytes and dendritic cells. In the latter, the reduction recorded was over 50% (FIG. 1B), while in monocytes the reduction was about 17% (FIG. 1A). In any case, this reduction is statistically significant. Similar results were obtained regarding the production of TNF-α which, in the presence of MT8, is reduced by about 17% in monocytes (FIG. 1C) and by 19% in dendritic cells (FIG. 1D). Again, the reduction observed in the presence of MT8 is statistically significant. […] Also, in the latter case the reduction is statistically significant.

[2] = tested on: human dendritic cells stimulated with LPS; assay: Production of IL-1β, TNF-α and IL-6 in human monocytes-derived dendritic cells stimulated with LPS (Luminex multiplex assay); conditions: 50 ng/ml LPS, MT8 10 or 30 µM, 18 hours
Experimental: as §1

[3] = tested on: ADAR1; assay: Activation of the homodimeric complex of ADAR1 in HEK-293 TrkA cells (immunoprecipitation, Western Blot, densitometry); conditions: serum-free 18 hours, 10 µM MT8, 60 minutes, FIG. 2
Experimental: In order to study the effect of the MT8 compound on the ADAR1 enzyme, HEK-293 TrkA cells were cultured in serum-free medium for 18 hours and incubated with or without 10 µM of MT8 for another 60 minutes. The cells were then lysed in RIPA buffer (50 mM Tris-HCI, pH 7.4; 150 mM NaCl; 2 mM EDTA; 1 mM NaF; 1 mM sodium orthovanadate, 1% NP-40) and the proteins immunoprecipitated with Anti-ADAR1 antibody and subjected to biochemical analysis by Western Blot. Briefly, 500 µg of total protein was immunoprecipitated using a specific Anti-ADAR1 antibody. The immunoprecipitated product was loaded onto polyacrylamide gel and transferred onto the PVDF membrane. The membrane was then incubated with specific anti-ADAR1 antibodies for signal detection. The analysis allowed to highlight the presence of homodimeric complexes ADAR1/ADAR1 and of the monomeric forms of ADAR1 p150 and p110. The quantitative determination of the homodimer complex of ADAR1, performed by densitometry, was expressed as the ratio between the density of the band of the homodimer ADAR1/ADAR1 and that of the monomer ADAR1 p110.

[4] = tested on: miR-101; assay: Expression of miR-101 in human monocytes stimulated with LPS (Real-time PCR)
Experimental: In order to study the effect of MT8 on the activity of miR-101 in the pro-inflammatory setting, human monocytes isolated from buffy coat were stimulated with 1 µg/ml of LPS in the presence or absence of MT8 at the final concentration of 1 0 µM. After 60 minutes, the cells were lysed in TRIzol for the extraction of total RNA, which was then used for the quantification of miR-101 by Real-time PCR. […] The quantitative determination was performed using the 5 s ribosomal RNA gene as housekeeping and the relative increase calculated applying the 2^-ΔCt method.

[5] = tested on: miR-101; assay: miR-101 expression levels in HEK-293 TrkA cells following ADAR1 knock-down (Real-time PCR); conditions: 10 µM MT8, 60 minutes, FIG. 4
Experimental: In order to study the effect of MT8 on miR-101 regulatory mechanisms under metabolic stress conditions, HEK-293 TrkA cells were transfected with ADAR1-specific siRNA or control siRNA (scrambled) at the final concentration of 50 nM. After 48 hours, the cells were incubated in serum-free medium for 18 hours and stimulated with MT8 at a concentration of 10 µM for a further 60 minutes. The cells were lysed with TRIzol for the extraction of total RNA, used for the assay of miR-101 by Real Time PCR. The quantitative determination of miR-101 was performed using the 5 s ribosomal RNA gene as the housekeeping gene and the relative increase calculated applying the 2^-ΔCt method.

With O=C(O)[C@H]1O[C@H]2O[C@@H]1C(=O)N(Cc1ccccc1)[C@@H]2Cc1ccccc1 [MT8, (1S, 4R, 5R, 7S) -3,4-dibenzyl-2-oxo-6,8-dioxa-3-azabicyclo[3.2.1]octane-7-carboxylic acid L-lysine Salt] the “reduction of IL-1β production” value ([1]; FIG. 1A) was “about 17%”, the “reduction of TNF-α production” value ([1]; FIG. 1C) was “about 17%” and the “reduction of IL-6 production” value ([1]; FIG. 1E) was “about 70%”. The “reduction of IL-1β production” value ([2]; FIG. 1B) was “over 50%”, the “reduction of TNF-α production” value ([2]; FIG. 1D) was 19% and the “reduction of IL-6 production” value ([2]; FIG. 1F) was “about 65%”. The “homodimeric (active) form of ADAR1, ratio homodimer ADAR1/ADAR1 to monomer ADAR1 p110, compared to untreated cells” value [3] was “high increase”, the “time of exposure until decrease of miR-101” value ([4]; cellular and tissue systems exposed to MT8) was at most 1 h and the “miR-101 expression level compared to monocytes treated with LPS alone” value ([4]; human monocytes, 1 µg/ml LPS, MT8 1 0 µM, 60 minutes, FIG. 3) was “strong decrease”. The “ability to decrease miR-101 expression in cells transfected with specific siRNA for ADAR1” value ([5]; ADAR1-specific siRNA 50 nM) was “not” and the “miR-101 expression level in scrambled siRNA-transfected cells” value ([5]; control (scrambled) siRNA 50 nM) was “marked decrease”.
